pIC50: −log10 of the molar value. Where two headings read alike, the source gives them in different places.
Experiments:
[1] = target: human recombinant PDE-4B1 (Homo sapiens, UniProt Q07343); test: PDE4-B1 assay (Compounds of Formula I), SPA; assay type: biochemical; conditions: for IC50: 4-parameter logistical fit, two technical replicates; for inhibition at 30 µM: relative to Ro 20-1724
Description: (§1) 20 mins after addition of human recombinant PDE-4B1 (1.2 IEU) or PDE-4D2 (1.5 IEU), SPA beads were added and incubated at 22° C. for a further 30 mins. [^3H]5′AMP was quantified by a standard scintillation counting method.

[2] = target: human recombinant PDE-4D2 (Homo sapiens, UniProt Q08499); test: PDE4-D2 assay (Compounds of Formula I), SPA; assay type: biochemical; conditions: for IC50: 4-parameter logistical fit, two technical replicates; for inhibition at 30 µM: relative to Ro 20-1724
Description: as §1

PDE-4A1A = target: T1, PDE-4A1A (Homo sapiens, UniProt P27815); test: PDE-41A assay (Compounds of Formula II), AMP-Glo; assay type: biochemical
T1 construct: purchased Sigma SRP0262
Description: PDE-41A assays were performed using the AMP-Glo™ Assay Kit, (Promega-V5012) human recombinant […] (Sigma, SRP0262) according to recommended protocols. […]

hSERT = target: T2, hSERT (Homo sapiens, UniProt P31645); test: SERT assay (Compounds of Formula II), transporter uptake assay kit; assay type: cell-based
T2 construct: expressed in transfected cells
Description: SERT assays were performed using a standard transporter uptake assay kit, (Molecular devices, (R8174)). In short, test compounds (10 nM-30 μM), reference compound or vehicle control were added to cells stably expressing hSERT (20,000/well) in assay buffer containing HBSS (20 mM) and BSA (0.1% (w/v)) for 30 mins at 30° C. Assay plates were incubated in the presence of dye for a further 60 mins at 37° C. and intracellular fluorescence intensity was determined.

[3] = target: T3, human serotonin transporter (Homo sapiens, UniProt P31645); conditions: for inhibition: 10 µM;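 as to all read-outs here: Read-out: uptake of tritium-labelled serotonin, measured by scintillation counting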
Description: (§2) Following incubation, [^3H] serotonin uptake was quantified by a standard scintillation counting method.

[4] = target: T3, human serotonin transporter; test: cell-based
Description: as §2

in vivo = test: in vivo; set-up: species or system male C57Bl/6J mice; conditions: male, C57Bl/6J, mouse, ip, 30 mg/kg
Description: Groups of 18 male C57Bl/6J mice (weighing between 22.7 and 27.3 g) received a single administration of test compound (30 mg/kg; i.p.) in methylcellulose (0.5% w/v) at a nominal concentration of […].
Three mice from each dose group were subject to cardiac puncture under general anesthesia at 0.25, 0.50, 1.00, 1.50, 2.00 and 4.00 hours post-dose and plasma samples generated for application of standard LC-MS/MS bioanalytical methods.
Quantitation of compound concentration was derived from reference calibration data. Pharmacokinetic data were derived from serial plasma concentrations.

Sequence of human recombinant PDE-4D2 (Q08499 303-809): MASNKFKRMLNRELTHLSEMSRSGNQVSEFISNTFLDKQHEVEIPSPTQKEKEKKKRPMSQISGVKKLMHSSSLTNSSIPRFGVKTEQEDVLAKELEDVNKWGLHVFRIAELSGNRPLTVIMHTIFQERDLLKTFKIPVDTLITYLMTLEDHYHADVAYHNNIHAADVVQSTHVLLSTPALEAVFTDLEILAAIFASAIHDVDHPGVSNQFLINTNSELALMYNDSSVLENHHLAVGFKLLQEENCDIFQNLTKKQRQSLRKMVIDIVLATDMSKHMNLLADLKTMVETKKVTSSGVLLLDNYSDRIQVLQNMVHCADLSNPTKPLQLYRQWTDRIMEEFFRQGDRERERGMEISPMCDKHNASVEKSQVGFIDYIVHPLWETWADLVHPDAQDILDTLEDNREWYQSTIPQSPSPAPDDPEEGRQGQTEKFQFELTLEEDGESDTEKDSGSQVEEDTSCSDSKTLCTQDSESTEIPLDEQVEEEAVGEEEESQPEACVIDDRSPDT
Sequence of human recombinant PDE-4B1 (Q07343 whole entry): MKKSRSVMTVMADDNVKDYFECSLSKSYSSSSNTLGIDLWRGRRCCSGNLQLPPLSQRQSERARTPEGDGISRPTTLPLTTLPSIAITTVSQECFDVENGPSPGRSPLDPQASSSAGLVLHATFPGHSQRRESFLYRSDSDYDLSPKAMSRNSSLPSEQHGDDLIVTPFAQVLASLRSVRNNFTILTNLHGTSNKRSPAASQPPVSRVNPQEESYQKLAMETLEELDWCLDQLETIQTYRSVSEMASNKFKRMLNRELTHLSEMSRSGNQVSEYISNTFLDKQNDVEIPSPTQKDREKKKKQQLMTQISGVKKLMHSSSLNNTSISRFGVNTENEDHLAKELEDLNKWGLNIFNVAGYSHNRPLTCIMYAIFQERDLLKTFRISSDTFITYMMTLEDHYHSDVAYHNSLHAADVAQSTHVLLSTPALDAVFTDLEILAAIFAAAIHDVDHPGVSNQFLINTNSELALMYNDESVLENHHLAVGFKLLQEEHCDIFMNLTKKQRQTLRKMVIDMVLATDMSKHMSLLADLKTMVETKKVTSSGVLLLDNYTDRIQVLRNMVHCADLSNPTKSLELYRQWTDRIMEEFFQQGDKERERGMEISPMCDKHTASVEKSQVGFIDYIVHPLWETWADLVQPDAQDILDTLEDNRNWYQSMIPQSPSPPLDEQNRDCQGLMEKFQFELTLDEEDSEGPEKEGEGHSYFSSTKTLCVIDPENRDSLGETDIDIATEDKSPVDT
T1 sequence (P27815 1-647 isoform P27815-4): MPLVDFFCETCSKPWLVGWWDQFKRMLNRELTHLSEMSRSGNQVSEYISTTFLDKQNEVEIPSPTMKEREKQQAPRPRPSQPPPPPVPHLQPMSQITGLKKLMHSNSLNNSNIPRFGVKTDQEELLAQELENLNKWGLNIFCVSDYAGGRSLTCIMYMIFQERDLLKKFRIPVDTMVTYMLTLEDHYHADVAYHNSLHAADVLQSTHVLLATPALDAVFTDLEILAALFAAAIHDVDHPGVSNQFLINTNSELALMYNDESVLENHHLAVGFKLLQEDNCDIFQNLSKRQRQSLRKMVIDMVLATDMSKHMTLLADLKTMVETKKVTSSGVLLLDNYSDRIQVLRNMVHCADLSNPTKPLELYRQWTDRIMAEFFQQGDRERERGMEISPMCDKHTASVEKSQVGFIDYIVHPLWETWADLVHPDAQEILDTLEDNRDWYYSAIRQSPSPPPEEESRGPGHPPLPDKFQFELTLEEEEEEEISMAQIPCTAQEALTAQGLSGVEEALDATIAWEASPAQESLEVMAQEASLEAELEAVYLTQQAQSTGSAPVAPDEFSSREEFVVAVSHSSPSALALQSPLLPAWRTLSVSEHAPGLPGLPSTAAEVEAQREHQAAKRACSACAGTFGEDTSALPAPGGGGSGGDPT
T2 sequence (P31645 whole entry): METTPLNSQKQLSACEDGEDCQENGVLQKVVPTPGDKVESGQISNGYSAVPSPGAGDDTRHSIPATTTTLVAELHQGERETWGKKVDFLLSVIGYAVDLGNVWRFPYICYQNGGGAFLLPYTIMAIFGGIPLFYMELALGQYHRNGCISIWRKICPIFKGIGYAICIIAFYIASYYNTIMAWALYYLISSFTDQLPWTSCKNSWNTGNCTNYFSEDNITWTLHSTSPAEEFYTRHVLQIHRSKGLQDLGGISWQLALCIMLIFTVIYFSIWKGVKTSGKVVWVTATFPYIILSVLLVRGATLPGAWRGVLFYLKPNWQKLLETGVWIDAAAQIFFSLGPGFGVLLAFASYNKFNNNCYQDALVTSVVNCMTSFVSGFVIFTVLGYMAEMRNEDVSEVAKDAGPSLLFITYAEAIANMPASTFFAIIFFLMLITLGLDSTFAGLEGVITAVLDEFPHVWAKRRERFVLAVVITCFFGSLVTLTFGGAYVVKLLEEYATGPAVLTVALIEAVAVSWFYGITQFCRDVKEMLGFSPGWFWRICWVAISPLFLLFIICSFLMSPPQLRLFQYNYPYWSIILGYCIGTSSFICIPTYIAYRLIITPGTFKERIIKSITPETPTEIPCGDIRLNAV
T3 sequence (P31645 whole entry): as above

CSc1cc([C@@]23CCC(=O)C[C@@H]2N(C)CC3)ccc1OC(C)C [Compound 25]
IC50 [1]: > 30 µM
IC50 [2]: > 30 µM

COc1ccc([C@@]23CC[C@@H](OC(=O)c4ccccc4)C[C@@H]2N(C)CC3)cc1OC [Compound 52]
inhibition at 30 µM (PDE-4A1A): 97%
inhibition at 100 µM (PDE-4A1A): 99%
inhibition at 1 µM (hSERT): 91%
inhibition at 3 µM (hSERT): 91%

CCOc1cc([C@@]23CCC(=O)C[C@@H]2N(C)CC3)ccc1OCC1CC1 [Compound 35]
IC50 [1]: > 30 µM
IC50 [2]: > 30 µM
pIC50 [3]: 6.70

COc1ccc([C@@]23CCC(=O)C[C@@H]2N(C)CC3)cc1OCC(F)(F)F [Compound 4]
IC50 [1]: 7.1 µM
pIC50 [4]: > 7.00
IC50 [2]: 11.3 µM

CCOc1ccc([C@@]23CCC(=O)C[C@@H]2N(C)CC3)cc1OCC1CC1 [Compound 24]
AUC(0-inf) (in vivo): 825 ng·h/mL
Cmax (in vivo): 492 ng/mL
Tmax (in vivo): 15 min
half-life (in vivo): 76.8 min
pIC50 [3]: 7.70
inhibition [3]: 91%

CCSc1cc([C@@]23CCC(=O)C[C@@H]2N(C)CC3)ccc1OC [Compound 3]
IC50 [1]: 5.2 µM
IC50 [2]: 1.3 µM
pIC50 [3]: 8.30

CCCCOc1cc([C@@]23CCC(=O)C[C@@H]2N(C)CC3)ccc1OCC [Compound 20]
inhibition at 30 µM [1]: 83%
inhibition at 30 µM [2]: 92%
inhibition [3]: 100%

COc1cc([C@@]23CCC(=O)C[C@@H]2N(C)CC3)ccc1OCC1CC1 [Compound 34]
IC50 [1]: > 30 µM
IC50 [2]: > 30 µM
pIC50 [3]: 6.05

COc1ccc([C@@]23CC[C@@H](OC(=O)C(C)C)C[C@@H]2N(C)CC3)cc1OC [Compound 51]
inhibition at 30 µM (PDE-4A1A): 95%
inhibition at 100 µM (PDE-4A1A): 99%
inhibition at 1 µM (hSERT): 99%
inhibition at 3 µM (hSERT): 98%

COc1ccc([C@@]23C=C[C@@H](OC(=O)c4ccccc4)C[C@@H]2N(C)CC3)cc1OC [Compound 60]
inhibition at 30 µM (PDE-4A1A): 98%
inhibition at 100 µM (PDE-4A1A): 100%
inhibition at 1 µM (hSERT): 92%
inhibition at 3 µM (hSERT): 95%

CCOc1ccc([C@@]23CCC(=O)C[C@@H]2N(C)CC3)cc1OC1CCCCC1 [Compound 23]
inhibition at 30 µM [1]: 88%
inhibition at 30 µM [2]: 93%
inhibition [3]: 77%

COc1ccc([C@@]23C=C[C@@H](OC(=O)CN)C[C@@H]2N(C)CC3)cc1OC [Compound 56]
inhibition at 30 µM (PDE-4A1A): 74%
inhibition at 100 µM (PDE-4A1A): 102%
inhibition at 1 µM (hSERT): 86%
inhibition at 3 µM (hSERT): 99%

COc1ccc([C@@]23CC[C@@H](OC(=O)CCCC(=O)O)C[C@@H]2N(C)CC3)cc1OC [Compound 47]
inhibition at 30 µM (PDE-4A1A): 40%
inhibition at 100 µM (PDE-4A1A): 88%
inhibition at 1 µM (hSERT): 90%
inhibition at 3 µM (hSERT): 94%

COc1ccc([C@@]23C=C[C@@H](OC(=O)C(C)N)C[C@@H]2N(C)CC3)cc1OC (stereo partly shown) [Compound 57]
inhibition at 30 µM (PDE-4A1A): 101%
inhibition at 100 µM (PDE-4A1A): 102%
inhibition at 1 µM (hSERT): 86%
inhibition at 3 µM (hSERT): 97%

CCOc1ccc([C@@]23CCC(=O)C[C@@H]2N(C)CC3)cc1SC [Compound 17]
inhibition at 30 µM [1]: 61%
inhibition at 30 µM [2]: 74%
inhibition [3]: 99%

COc1ccc([C@@]23CCC(=O)C[C@@H]2N(C)CC3)cc1OCc1ccccc1 [Compound 12]
pIC50 [4]: < 5.00

COc1ccc([C@@]23C=C[C@@H](OC(=O)C(C)C)C[C@@H]2N(C)CC3)cc1OC [Compound 59]
inhibition at 30 µM (PDE-4A1A): 100%
inhibition at 100 µM (PDE-4A1A): 100%
inhibition at 1 µM (hSERT): 99%
inhibition at 3 µM (hSERT): 97%

CC(C)Oc1ccc([C@@]23CCC(=O)C[C@@H]2N(C)CC3)cc1OC1CCCCC1 [Compound 26]
inhibition at 30 µM [1]: 26%
inhibition at 30 µM [2]: 20%
inhibition [3]: 81%

CC(C)Oc1ccc([C@@]23CCC(=O)C[C@@H]2N(C)CC3)cc1OCC1CC1 [Compound 22]
inhibition at 30 µM [1]: 38%
inhibition at 30 µM [2]: 37%
inhibition [3]: 91%

CN1CC[C@]2(c3ccc(OCC4CC4)c(OCC4CC4)c3)CCC(=O)C[C@H]12 [Compound 36]
IC50 [1]: > 30 µM
IC50 [2]: > 30 µM
pIC50 [3]: 6.40

CCC(=O)O[C@@H]1CC[C@@]2(c3ccc(OC)c(OC)c3)CCN(C)[C@H]2C1 [Compound 50]
inhibition at 30 µM (PDE-4A1A): 92%
inhibition at 100 µM (PDE-4A1A): 101%
inhibition at 1 µM (hSERT): 98%
inhibition at 3 µM (hSERT): 98%

COc1ccc([C@@]23CCC(=O)C[C@@H]2N(C)CC3)cc1OC1CCCCC1 [Compound 14]
inhibition at 30 µM [1]: 94%
inhibition at 30 µM [2]: 97%
inhibition [3]: 59%

COc1ccc([C@@]23C=C[C@@H](OC(=O)CCC(=O)O)C[C@@H]2N(C)CC3)cc1OC [Compound 54]
inhibition at 30 µM (PDE-4A1A): 98%
inhibition at 100 µM (PDE-4A1A): 101%
inhibition at 1 µM (hSERT): 78%
inhibition at 3 µM (hSERT): 98%

COc1ccc([C@@]23CCC(=O)C[C@@H]2N(C)CC3)cc1OCC(F)F [Compound 7]
pIC50 [3]: 7.70

COc1ccc([C@]23CCC(=O)C[C@H]2N(C)CC3)cc1OC [Compound 45]
IC50 [2]: < 3 µM

COc1ccc([C@@]23CC[C@@H](OC(=O)CN)C[C@@H]2N(C)CC3)cc1OC [Compound 48]
inhibition at 30 µM (PDE-4A1A): -8%
inhibition at 100 µM (PDE-4A1A): 48%
inhibition at 1 µM (hSERT): 93%
inhibition at 3 µM (hSERT): 101%

COc1ccc([C@@]23CC[C@@H](OC(=O)c4ccc[nH]4)C[C@@H]2N(C)CC3)cc1OC [Compound 53]
inhibition at 30 µM (PDE-4A1A): 94%
inhibition at 100 µM (PDE-4A1A): 97%
inhibition at 1 µM (hSERT): 99%
inhibition at 3 µM (hSERT): 98%

CCC(=O)O[C@@H]1C=C[C@@]2(c3ccc(OC)c(OC)c3)CCN(C)[C@H]2C1 [Compound 58]
inhibition at 30 µM (PDE-4A1A): 103%
inhibition at 100 µM (PDE-4A1A): 100%
inhibition at 1 µM (hSERT): 98%
inhibition at 3 µM (hSERT): 98%

CCOc1ccc([C@@]23CCC(=O)C[C@@H]2N(C)CC3)cc1OC [Compound 31]
pIC50 [4]: > 7.00

CCCCOc1cc([C@@]23CCC(=O)C[C@@H]2N(C)CC3)ccc1OC(C)C [Compound 30]
inhibition at 30 µM [1]: 24%
inhibition at 30 µM [2]: 31%
inhibition [3]: 95%

CC(C)Oc1ccc([C@@]23CCC(=O)C[C@@H]2N(C)CC3)cc1OC1CCCC1 [Compound 28]
inhibition at 30 µM [1]: 53%
inhibition at 30 µM [2]: 55%
inhibition [3]: 98%

CN1CC[C@]2(c3ccc(OCC4CC4)c(OC4CCCC4)c3)CCC(=O)C[C@H]12 [Compound 39]
IC50 [1]: > 30 µM
IC50 [2]: > 30 µM
pIC50 [3]: 5.35

CC(C)Oc1ccc([C@@]23CCC(=O)C[C@@H]2N(C)CC3)cc1O [Compound 18]
inhibition at 30 µM [1]: -4%
inhibition at 30 µM [2]: -3%
inhibition [3]: 86%

CCCCOc1cc([C@@]23CCC(=O)C[C@@H]2N(C)CC3)ccc1OCC1CC1 [Compound 37]
IC50 [1]: > 30 µM
IC50 [2]: > 30 µM
pIC50 [3]: 6.10

CCOc1ccc([C@@]23CCC(=O)C[C@@H]2N(C)CC3)cc1O [Compound 16]
inhibition at 30 µM [1]: -1%
inhibition at 30 µM [2]: 3%
inhibition [3]: 98%

COc1cc([C@@]23CCC(=O)C[C@@H]2N(C)CC3)ccc1OC(C)C [Compound 19]
inhibition at 30 µM [1]: 1%
inhibition at 30 µM [2]: 3%
inhibition [3]: 99%

COc1ccc([C@@]23CCC(=O)C[C@@H]2N(C)CC3)cc1O [Compound 10]
IC50 [1]: > 30 µM
IC50 [2]: > 30 µM
pIC50 [3]: 6.52

COc1ccc([C@@]23C=C[C@@H](OC(=O)c4ccc[nH]4)C[C@@H]2N(C)CC3)cc1OC [Compound 61]
inhibition at 30 µM (PDE-4A1A): 94%
inhibition at 100 µM (PDE-4A1A): 90%
inhibition at 1 µM (hSERT): 101%
inhibition at 3 µM (hSERT): 106%

CN1CC[C@]2(c3ccc(OCC4CC4)c(O)c3)CCC(=O)C[C@H]12 [Compound 33]
IC50 [1]: > 30 µM
IC50 [2]: > 30 µM
pIC50 [3]: 5.68

CCOc1cc([C@@]23CCC(=O)C[C@@H]2N(C)CC3)ccc1OC(C)C [Compound 29]
inhibition at 30 µM [1]: 40%
inhibition at 30 µM [2]: 32%
inhibition [3]: 99%

COc1ccc([C@@]23C=C[C@@H](OC(=O)CCCC(=O)O)C[C@@H]2N(C)CC3)cc1OC [Compound 55]
inhibition at 30 µM (PDE-4A1A): 100%
inhibition at 100 µM (PDE-4A1A): 95%
inhibition at 1 µM (hSERT): 67%
inhibition at 3 µM (hSERT): 97%

COc1ccc([C@@]23CC[C@@H](OC(=O)C(C)N)C[C@@H]2N(C)CC3)cc1OC (stereo partly shown) [Compound 49]
inhibition at 30 µM (PDE-4A1A): 87%
inhibition at 100 µM (PDE-4A1A): 86%
inhibition at 1 µM (hSERT): 95%
inhibition at 3 µM (hSERT): 97%

COc1ccc([C@@]23CC[C@@H](OC(=O)CCC(=O)O)C[C@@H]2N(C)CC3)cc1OC [Compound 46]
inhibition at 30 µM (PDE-4A1A): 53%
inhibition at 100 µM (PDE-4A1A): 79%
inhibition at 1 µM (hSERT): 81%
inhibition at 3 µM (hSERT): 94%

C=CCOc1cc([C@@]23CCC(=O)C[C@@H]2N(C)CC3)ccc1OCC1CC1 [Compound 38]
IC50 [1]: > 30 µM
IC50 [2]: > 30 µM
pIC50 [3]: 6.40

Source: patent US20250091992A1, “NOVEL COMPOUNDS AND USES THEREOF” (KANNA HEALTH LIMITED, priority 2021, published 2025)
